System: FCA induced arthritis
Assay: FCA induced arthritis, non-injected paw volume
Assay type: in vivo, rat
Conditions: 10 mg/kg
Procedure: Anti-arthritis activity was studied by injecting Freund's complete adjuvant (FCA) in rat paw and measuring the edema formation and percentage inhibition of paw volume in the non-injected paw.
Male wistar rats weighing between 190-250 g were injected with 0.1 ml of FCA into the sub planter region of left hind paw. 0.1 ml of FCA solution consist of 6 mg of Complete Fraction of Mycobacterium Butyrium (Difco) being Suspended in heavy Paraffin Oil (Merck). Local oedema was produced after few hrs. Treatment with the test compound was carried out from day 13 to day 21 after FCA injection. Volume of the non-injected hind paw was recorded using plethysmometer (UGO Basile 7140).
The percentage inhibition of inflammation in the non-injected paw was measured as difference in the mean paw volume of the FCA control group to that of the treated animals.

## Cc1ccc(-c2cc(C(F)(F)F)nn2-c2ccc(S(N)(=O)=O)cc2)cc1 [Celecoxib]
Day 18
  Percentage reduction of FCA induced arthritis: 58.97 ± 35.93 %
Day 21
  Percentage reduction of FCA induced arthritis: 81.24 ± 22.35 %

Source: patent US8513203B2, “Composition and method thereof” (Indus Biotech Private Limited, priority 2011, dated 2013)
